“Also recorded” adds a separate entry of the source.
Assay: Pharmacokinetic evaluation of aripiprazole in rats following single subcutaneous doses of aripiprazole formulations
Type: in vivo, Sprague-Dawley rats
Conditions: rat, single SC injection of 10, 20 or 30 mg bulk drug in 0.75 mL diluent (3% CMC, 0.1% Tween 20, 0.9% NaCl); plasma 2 h to 28 d; versus microspheres with 30% or 50% load
Description: Experimental: Pharmacokinetic Evaluation of Aripiprazole in Rats Following Administration of Single Subcutaneous Doses of Aripiprazole Formulations. Species and Strain: Sprague-Dawley rats. Male; 450 +/−50 grams. Study Groups: 5 Groups, 15 subjects • Group A: three rats injected once SC with 10 mg of Aripiprazole. • Group B: three rats injected once SC with 20 mg of Aripiprazole. • Group C: three rats injected once SC with 30 mg of Aripiprazole. • Group D: three rats injected once SC with ˜67 mg of microparticles. • Group E: three rats injected once SC with ˜40 mg of microparticles. […] Route of Injection: Subcutaneous (SC) injection into the interscapular region. Injection Vehicle: Aqueous diluent containing 3% CMC (low viscosity), 0.1% Tween 20, in 0.9% NaCl and water. Dose Volumes: Suspensions were formulated as follows: • Group A: 10 mg powder in 0.75 mL Diluent • Group B: 20 mg powder in 0.75 mL Diluent • Group C: 30 mg powder in 0.75 mL Diluent • Group D: ˜67 mg microparticles in 0.75 mL Diluent • Group E: 40 mg microparticles in 0.75 mL Diluent Blood Collection: Blood samples were collected via a lateral tail vein after anesthesia with Halothane. A syringe without an anticoagulant was used for the blood collection, then the whole blood was transferred to tubes containing K2 EDTA and mixing beads (MICROTAINER®; MFG# BD365974). […]

O=C1CCc2ccc(OCCCCN3CCN(c4cccc(Cl)c4Cl)CC3)cc2N1 [aripiprazole, Aripiprazole]
plasma release profile of SC bolus injection compared with aripiprazole-containing PLGA microspheres: substantially the same; also recorded: extended release profile similar to that obtained by the injection of a poly lactide-co-glycolide microsphere formulation

From US8338428B2, “Methods for administering aripiprazole” (Alkermes, Inc., priority 2003, dated 2012)
